One series concerns Mbnl1 mRNA. The experiment in a line: Mbnl1 transcript levels in muscle by qRT-PCR. In kind it is in vivo, mouse. Particulars: HSALR mice, 9.2 mg/kg (mean) i.v. every 2 weeks x3, day 45; quadriceps, vs PBS-treated HSALR. The procedure: (§1) Total RNA from murine gastrocnemius and quadriceps muscle was isolated using the miRNeasy Mini Kit (QIAGEN, Hilden, Germany) according to the manufacturer's instructions. One microgram of RNA was digested with DNase I (Invitrogen, Carlsbad, CA) and reverse transcribed with SuperScript II (Invitrogen) using random hexanucleotides. For subsequent PCR reactions, 20 ng of cDNA was used with GoTaq polymerase (Promega). Specific primers were used to analyze the alternative splicing of Nfix, Atp2a1, and Clcn1 in mouse samples (both muscles). Gapdh levels established the endogenous reference levels using 0.2 ng of cDNA. […] PSR index was defined as value%SI minus X %DSI , divided by […] (SI, splicing inclusion of each sample; DSI, disease splicing inclusion; HSI, healthy splicing inclusion). Overall, PSR indicates the amount in both muscles analyzed. […] Commercial TaqMan probes (QIAGEN) were used for mouse (Mbnl1 and Mbnl2; FAM-labeled probes) and reference (GAPDH; MAX-labeled probe) genes. Results were normalized to Gapdh endogenous gene expression. Expression levels were measured using a QuantStudio 5 Real-Time PCR System (Applied Biosystems, Foster City, CA). […] Mouse handling and experimental procedures followed the European law regarding laboratory animal care and experimentation (2003/65/C.E.) and were approved by Conselleria de Agricultura, […] […]

A further series has as its system DM1 cells. Put plainly: Cell growth inhibition of DM1 cells, gymnosis vs transfection at EC50. In kind it is cell-based, human. Particulars: at the EC50 concentration. The procedure:
Immortalized MyoD-inducible (doxycycline) DM1 and control fibroblasts were kindly provided by Dr Furling (Institute of Myology, Paris, France).[38] For the activity assay, cells were seeded in 6-well plates at a density of 8 × 10^4 cells/well and grown in DMEM with 4.5 g/L glucose, 1% P/S, and 10% FBS (Sigma, St. Louis, MO). To transdifferentiate fibroblasts into myoblasts by inducing MyoD expression, the cells were plated in muscle differentiation medium containing DMEM with 4.5 g L^−1 glucose, 1% P/S, 2% horse serum, 1% apo-transferrin (10 mg mL^−1), 0.1% insulin (10 mg mL^−1), and 0.02% doxycycline (10 mg mL^−1). In all cases, the cells were grown at 37°C in a humidified atmosphere containing 5% CO2. Transdifferentiation was induced at day 0, and transfection was performed by lipofection with X-tremeGENE HP (Roche, Basel, Switzerland) 24 h later, with antimiRs and test compounds in the cell medium at different concentrations (from 0.4 nM to 5 μM). […]
Cells seeded at 10^5 cells/mL in 96-well plates were transfected 24 h later with antimiRs as described previously.[20] After 96 h, cell proliferation was measured using the CellTiter 96 AQueous Non-Radioactive Cell Proliferation Assay (Promega, Madison, WI). Absorbance levels were determined using an Infinite M200 PRO plate reader (Tecan, Männedorf, Switzerland) and the TC50 was calculated using non-linear least-squares regression.

The next series relates to Mbnl2 mRNA. The experiment in a line: Mbnl2 transcript levels in muscle by qRT-PCR. It counts as in vivo, mouse. Particulars: HSALR mice, 9.2 mg/kg (mean) i.v. every 2 weeks x3, day 45; gastrocnemius, vs PBS-treated HSALR. The method, then:
as §1
For orientation: In qPCR the cycle at which signal appears reflects the starting amount.

The test system of a further series is HSALR mice. Put plainly: Histology, percentage of muscle fibers with central nuclei. In kind it is in vivo, mouse. The conditions noted are these: 9.2 mg/kg (mean) i.v. every 2 weeks x3, day 45. From the text:
Mouse handling and experimental procedures followed the European law regarding laboratory animal care and experimentation (2003/65/C.E.) and were approved by Conselleria de Agricultura, Generalitat Valenciana (reference no. A1539961490857). We used homozygous transgenic HSA^LR (line 20 b) mice,[90] which were kindly provided by Dr Thornton (Rochester, NY) and were housed and bred in our animal facility. Experimental groups were FVB as healthy control and HSA^LR treated with a scrambled ON (SC) and PBS as negative controls, and HSA^LR mice treated with all six experimental CPP-PMOs. The mice were randomly allocated to the different treatments as follows: in each cage, each mouse was ear-marked as it was taken out, and each mouse was then assigned to a different treatment. […]
Frozen 15-μm sections of mouse gastrocnemius and quadriceps muscles were stained with hematoxylin and eosin and mounted with DPX Mountant for histology (Sigma) according to standard procedures. […] The percentage of fibers containing central nuclei was quantified in a total of 200 fibers in each mouse.

Take “6aKC-23b (antisense GGUAAUCCCUGGCAAUGUGAU; all phosphorodiamidate morpholino (PMO), T or U not given here; Pip6aKC peptide conjugated)”: the “Mbnl1 mRNA levels” value with Mbnl1 mRNA is given as “significant increases in quadriceps”.
With “9b2KC-23b (antisense GGUAAUCCCUGGCAAUGUGAU; all phosphorodiamidate morpholino (PMO), T or U not given here; Pip9b2KC peptide conjugated)”, the “toxicity (cell growth inhibition), gymnosis compared with transfection” value with DM1 cells is “toxicity was significantly reduced”. Further, the “relative expression of Mbnl2” value with Mbnl2 mRNA was found to be 2.65 fold.
Regarding “TCTTACCTCAGTTACAATTTA-Pip9b2 [Scramble, reference compound]”, the “muscle fibers with central nuclei vs PBS-injected mice” value in the series with HSALR mice is given as “did not differ significantly from PBS-injected ones”.

The values above are taken from article PMC10514136, “Peptide-conjugated antimiRs improve myotonic dystrophy type 1 phenotypes by promoting endogenous MBNL1 expression” (Molecular Therapy. Nucleic Acids, 2023).
